Measured values reported in PubChem BioAssay AID248 (DTP/NCI, 2004).
“And” between values parts separate entries of the source, which are not always exact repeats. Identical values can stand only once. Inconclusive results and toxic doses are left out. No stated cut-off is given here; in the data, active means T/C of 150% or more; inactive means T/C below 125%.

System: L1210 leukemia ip in BDF1 mice, survival T/C
Assay: NCI In Vivo Anticancer Drug Screen. Data for tumor model L1210 Leukemia (intraperitoneal) in B6D2F1 (BDF1) mice
Conditions: endpoint: mean survival time, higher = longer survival
Summary of the method: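 Survival endpoint. Drug-treated group vs vehicle group, expressed as T divided by C. Tumor passaged by transplantation.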

[1] = dose: 100.0 mg/kg/injection, schedule: Q01DX001 (ip), vehicle: saline with Tween-80
[2] = dose: 100.0 mg/kg/injection, schedule: Q01DX009 (ip), vehicle: saline
[3] = dose: 100.0 mg/kg/injection, schedule: Q04DX003 (ip), vehicle: saline
[4] = dose: 200.0 mg/kg/injection, schedule: Q01DX009 (ip), vehicle: saline
[5] = dose: 200.0 mg/kg/injection, schedule: Q04DX003 (ip), vehicle: saline
[6] = dose: 400.0 mg/kg/injection, schedule: Q04DX003 (ip), vehicle: saline
[7] = dose: 100.0 mg/kg/injection, schedule: Q04DX003 (ip), vehicle: saline with Tween-80
[8] = dose: 100.0 mg/kg/injection, schedule: Q01DX009 (ip), vehicle: saline with Tween-80
[9] = dose: 100.0 mg/kg/injection, schedule: Q04DX002 (ip), vehicle: Klucel (hydroxypropylcellulose) (HPC)
[10] = dose: 100.0 mg/kg/injection, schedule: Q04DX002 (ip), vehicle: saline with Tween-80
[11] = dose: 200.0 mg/kg/injection, schedule: Q01DX001 (ip), vehicle: saline with Tween-80
[12] = dose: 200.0 mg/kg/injection, schedule: Q01DX009 (ip), vehicle: saline with Tween-80
[13] = dose: 200.0 mg/kg/injection, schedule: Q04DX002 (ip), vehicle: Klucel (hydroxypropylcellulose) (HPC)
[14] = dose: 200.0 mg/kg/injection, schedule: Q04DX002 (ip), vehicle: saline with Tween-80
[15] = dose: 200.0 mg/kg/injection, schedule: Q04DX003 (ip), vehicle: saline with Tween-80
[16] = dose: 400.0 mg/kg/injection, schedule: Q01DX001 (ip), vehicle: saline with Tween-80
[17] = dose: 400.0 mg/kg/injection, schedule: Q04DX002 (ip), vehicle: Klucel (hydroxypropylcellulose) (HPC)
[18] = dose: 400.0 mg/kg/injection, schedule: Q04DX002 (ip), vehicle: saline with Tween-80
[19] = dose: 400.0 mg/kg/injection, schedule: Q04DX003 (ip), vehicle: saline with Tween-80
[20] = dose: 100.0 mg/kg/injection, schedule: Q01DX001 (ip), vehicle: saline
[21] = dose: 200.0 mg/kg/injection, schedule: Q01DX001 (ip), vehicle: saline
[22] = dose: 100.0 mg/kg/injection, schedule: Q01DX001 (ip), vehicle: carboxymethylcellulose (CMC)
[23] = dose: 200.0 mg/kg/injection, schedule: Q01DX001 (ip), vehicle: carboxymethylcellulose (CMC)
[24] = dose: 400.0 mg/kg/injection, schedule: Q01DX001 (ip), vehicle: carboxymethylcellulose (CMC)
[25] = dose: 400.0 mg/kg/injection, schedule: Q01DX009 (ip), vehicle: saline with Tween-80
[26] = dose: 100.0 mg/kg/injection, schedule: Q01DX009 (ip), vehicle: Klucel (hydroxypropylcellulose) (HPC)
[27] = dose: 200.0 mg/kg/injection, schedule: Q01DX009 (ip), vehicle: Klucel (hydroxypropylcellulose) (HPC)
[28] = dose: 400.0 mg/kg/injection, schedule: Q01DX009 (ip), vehicle: Klucel (hydroxypropylcellulose) (HPC)

Measured: T/C

CCC1CCC(NC(C)=O)CC1 (configuration not stated)
inactive: dose: 25.0 mg/kg/injection, schedule: Q01DX001 (ip), vehicle: saline with Tween-80 96 % of control | dose: 50.0 mg/kg/injection, schedule: Q01DX001 (ip), vehicle: saline with Tween-80 108 % of control | [1] 94 % of control

Nc1n[nH]c(N)n1.[Co]
inactive: dose: 50.0 mg/kg/injection, schedule: Q04DX003 (ip), vehicle: saline 103 % of control | [2] 100 % of control | [3] 100 % of control | [4] 94 % of control | [5] 108 % of control | dose: 400.0 mg/kg/injection, schedule: Q01DX009 (ip), vehicle: saline 107 % of control | [6] 105 % of control

CCC(C)C(CN)(CCN(C)CC)c1cccc2ccccc12 (configuration not stated)
inactive: [7] 90 % of control

NC(=O)/C=C/C(=O)O
inactive: [1] 97 % of control | [8] 98 % of control and 101 % of control | [9] 88 % of control | [10] 94 % of control and 97 % of control | [7] 92 % of control | [11] 108 % of control | [12] 98 % of control and 116 % of control | [13] 88 % of control | [14] 97 % of control and 99 % of control | [15] 106 % of control | [16] 96 % of control | [17] 91 % of control | [18] 90 % of control | [19] 94 % of control

Cc1cc(N(CCCl)CCCl)ccc1C=Nc1cccnc1
inactive: dose: 50.0 mg/kg/injection, schedule: Q01DX001 (ip), vehicle: other 100 % of control | dose: 100.0 mg/kg/injection, schedule: Q01DX001 (ip), vehicle: other 100 % of control | dose: 200.0 mg/kg/injection, schedule: Q01DX001 (ip), vehicle: other 92 % of control | dose: 400.0 mg/kg/injection, schedule: Q01DX001 (ip), vehicle: other 94 % of control

NC(CCl)CCl
inactive: dose: 12.5 mg/kg/injection, schedule: Q01DX Z (ip), vehicle: other 92 % of control | dose: 25.0 mg/kg/injection, schedule: Q01DX Z (ip), vehicle: other 100 % of control | dose: 100.0 mg/kg/injection, schedule: Q01DX Z (ip), vehicle: other 94 % of control

O=C(O)CCBr
inactive: [20] 93 % of control | [21] 104 % of control

Cc1cc(CN)c(C)cc1CN
inactive: dose: 50.0 mg/kg/injection, schedule: Q01DX009 (ip), vehicle: saline 96 % of control | [2] 95 % of control | [3] 103 % of control | [4] 86 % of control | [5] 97 % of control

COc1ccc2[nH]c3c(c(=O)c2c1)CCCC3
inactive: dose: 50.0 mg/kg/injection, schedule: Q01DX001 (ip), vehicle: carboxymethylcellulose (CMC) 101 % of control | [22] 95 % of control | [23] 100 % of control | [24] 97 % of control

Cc1ccc(C2(C#N)CC2)cc1
inactive: [8] 98 % of control | [7] 108 % of control | [12] 98 % of control | [15] 104 % of control | [25] 112 % of control | [19] 104 % of control

Clc1ccc(CI)cc1
inactive: dose: 25.0 mg/kg/injection, schedule: Q04DX003 (ip), vehicle: alcohol 106 % of control | dose: 50.0 mg/kg/injection, schedule: Q04DX003 (ip), vehicle: alcohol 98 % of control | dose: 100.0 mg/kg/injection, schedule: Q04DX003 (ip), vehicle: alcohol 98 % of control

CS(=O)(=O)CS(C)(=O)=O
inactive: [22] 93 % of control | [26] 94 % of control | [3] 94 % of control | [23] 93 % of control | [27] 105 % of control | [5] 98 % of control | [24] 110 % of control | [28] 101 % of control | [6] 93 % of control

CC(=O)OCCS(=O)(=O)c1c(Cl)c(Cl)c(Cl)c(Cl)c1Cl
inactive: [9] 95 % of control | [13] 88 % of control

O=C1CC2CCCC(C1)S2
inactive: dose: 75.0 mg/kg/injection, schedule: Q01DX001 (ip), vehicle: carboxymethylcellulose (CMC) 107 % of control | [9] 86 % of control | dose: 150.0 mg/kg/injection, schedule: Q01DX001 (ip), vehicle: carboxymethylcellulose (CMC) 109 % of control | [13] 100 % of control | dose: 300.0 mg/kg/injection, schedule: Q01DX001 (ip), vehicle: carboxymethylcellulose (CMC) 102 % of control | [17] 86 % of control

CC(=O)c1c(C)c(Cl)c(C)c(Cl)c1O
inactive: [26] 101 % of control | [9] 103 % of control and 107 % of control | [27] 104 % of control | [13] 103 % of control and 114 % of control | [28] 90 % of control | [17] 95 % of control and 107 % of control

O=C(COc1ccccc1)NC(=S)Nc1ccc(F)c([N+](=O)[O-])c1
inactive: [1] 113 % of control | [8] 100 % of control and 86 % of control | [10] 94 % of control and 119 % of control | [11] 98 % of control | [12] 99 % of control and 116 % of control | [14] 102 % of control and 103 % of control | [16] 95 % of control | [25] 102 % of control | [18] 104 % of control and 87 % of control

Nc1ncnc2c1ncn2C1OC(CO)C(S)C1O (configuration not stated)
inactive: [22] 105 % of control | [23] 92 % of control

CC(C)(Br)C1CC(=O)C(C)(Br)C(Br)C1 (configuration not stated)
inactive: [20] 98 % of control | [21] 101 % of control | dose: 400.0 mg/kg/injection, schedule: Q01DX001 (ip), vehicle: saline 101 % of control

Nc1nc(N)c2nc(CNc3ccccc3)cnc2n1
inactive: dose: 20.0 mg/kg/injection, schedule: Q01DX009 (ip), vehicle: Klucel (hydroxypropylcellulose) (HPC) 96 % of control | dose: 40.0 mg/kg/injection, schedule: Q01DX009 (ip), vehicle: Klucel (hydroxypropylcellulose) (HPC) 105 % of control | dose: 80.0 mg/kg/injection, schedule: Q01DX009 (ip), vehicle: Klucel (hydroxypropylcellulose) (HPC) 96 % of control
